From PMC6390472, “‘Second-generation’ 1,2,3-triazole-based inhibitors of Porphyromonas gingivalis adherence to oral streptococci and biofilm formation” (MedChemComm, 2019)
Like-named read-outs stand apart in the source and are kept apart here.

What was measured:
P. gingivalis = experiment: Planktonic growth of P. gingivalis (O.D.600nm); assay type: cell-based, P. gingivalis ATCC33277; conditions: Porphyromonas gingivalis, read-out: Percent inhibition of: P. gingivalis (planktonic growth)
Procedure: (§1) P. gingivalis ATCC33277 was grown in reduced trypticase soy broth (Difco) supplemented with 0.5 percent yeast extract, 1 μg mL^–1 menadione, and 5 μg mL^–1 hemin. Twenty five milliliters of medium were reduced for 24 h under anaerobic conditions by equilibrating in an atmosphere consisting of 10% CO2, 10% H2, and 80% N2. Following equilibration, P. gingivalis was inoculated in the medium and grown for 48 h at 37 °C under anaerobic conditions. S. gordonii DL-1 (1) was cultured aerobically without shaking in brain heart infusion (BHI) broth supplemented with 1 percent yeast extract for 16 hours at 37 °C. For some compounds that inhibited P. gingivalis adherence to S. gordonii, we determined their effect on planktonic growth of P. gingivalis and S. gordonii. The appropriate growth medium (10 ml) was supplemented with 10 μl of a 40 mM compound stock solution in DMSO. After inoculation, broth cultures were incubated as described above and compared to cultures grown in medium that was supplemented only with 0.1% DMSO. The cell density of each culture was determined by measuring the optical density at 600 nm (O.D.600nm) and the percent growth inhibition/stimulation was calculated using the following equation: [(O.D.600nm of the control/O.D.600nm of the culture grown in the presence of compound) – 1] × 100.

[1] = tested on: P. gingivalis adherence to S. gordonii; experiment: Biofilm model of P. gingivalis adherence to S. gordonii (confocal, green/red fluorescence ratio); assay type: cell-based, P. gingivalis ATCC33277 / S. gordonii DL-1; conditions: inhibition of P. gingivalis adherence to S. gordonii; concentration that reduced ratio of green to red fluorescence by 50%; tested 0–60 μM
Procedure: as §1
Two species biofilms were formed essentially as previously described.[39] To prepare bacterial cells for biofilm culture, 10 ml of an overnight S. gordonii culture was centrifuged at 5600 rpm for 5 min and the cell pellet was suspended in 1 mL sterile PBS. Subsequently, 20 μL of 5 mg ml^–1 hexidium iodide (Molecular Probes) was added to the cell suspension and incubated for 15 min with gentle shaking at room temperature in the dark. The labeled cells were centrifuged as described above, washed with phosphate-buffered saline (10 mM Na2HPO4, […], […], and 2.7 mM KCl, pH 7.2; [PBS]) and the cell pellet was suspended in PBS at a final O.D.600nm of 0.8. Similarly, 10 mL of a 48 h culture of P. gingivalis was centrifuged at 5600 rpm for 15 min, the cell pellet was suspended in 1 mL PBS and 20 μL of 5(6)-carboxyfluorescein N-hydroxysuccinimide ester (4 mg ml^–1, Molecular Probes, Inc.) was added. After incubation for 30 min with gentle shaking at room temperature in the dark, the suspension was centrifuged and washed as described above and suspended in PBS at a final O.D.600nm of 0.4. For biofilm cultures, 1 mL of labeled S. gordonii cells was added to each well of a 12-well microtiter plate (Greiner Bio-one) containing a circular coverslip (Fisher brand) and incubated in an anaerobic chamber with rotary shaking for 24 h at 37 °C. Unbound cells were removed by aspiration and 1 ml of labeled P. gingivalis cells containing the desired concentration of test compound was added and incubated under anaerobic conditions for 22 h at 37 °C. Test compounds were dissolved in dimethyl sulfoxide (DMSO) to generate 1000× stock solutions and were routinely tested over a final concentration range of 0–60 μM. 1 μL of the appropriate stock solution was added to each 1 mL aliquot of labeled P. gingivalis cells and incubated for 30 min at room temperature prior to adding the suspension to the microtiter plate wells. For control biofilms, 1 μL of DMSO was added to 1 mL of labeled P. gingivalis and incubated as described above.
To visualize P. gingivalis/S. gordonii biofilms, unbound P. gingivalis cells were removed by aspiration and coverslips were washed once with PBS. Biofilms were fixed by incubating the coverslips with 1 mL of 4% paraformaldehyde for 5 min followed by two washes with PBS. The coverslips were then removed, placed face down on a glass microscope slide containing a drop of antifade reagent (Life Technology) and sealed with nail polish. […]

S. gordonii = experiment: Planktonic growth of S. gordonii (O.D.600nm); assay type: cell-based, S. gordonii DL-1; conditions: Streptococcus gordonii, read-out: Percent inhibition of: S. gordonii (planktonic growth)
Procedure: as §1

TIGK cells = experiment: Cellular ATP levels, CellTiterGlo; assay type: cell-based, Human; conditions: for ATP levels: 95 (5, 20, 40 μM), 111 (5, 20, 60 μM), 115 (5, 10, 20 μM), 122 (5, 20, 60 μM)
Procedure: Human telomerase immortalized gingival keratinocytes (TIGKs) were provided by Dr. Richard Lamont (University of Louisville) and were authenticated by comparison to primary gingival epithelial cells for cell morphology, growth, cytokeratin expression and the expression of toll-like receptors. TIGKs were cultured at 37 °C in an atmosphere of 5% CO2 in Basal Medium Dermalife K complete kit with Supplements (LifeLine, Frederick, MD). Cultures were incubated for 5 days and attained >95% confluence.
Cell metabolic activity was assessed by quantifying total ATP levels in cell culture samples using CellTiterGlo reagent (Promega). TIGK and J774A.1 cells were cultured and incubated with compounds as described above, washed three times with sterile PBS and incubated with 100 μl of CellTiterGlo substrate for 2 min with shaking and for an additional 10 min without shaking. Total light production was measured using a Victor 3 multi-label plate reader (PerkinElmer) in luminometer mode. All samples were assayed in triplicate.

[2] = 40 μM compound, cultures incubated overnight, vs 0.1% DMSO

Row | Compound | inhibition at 40 µM (P. gingivalis; [2]) [%] | IC50 [1] [µM] | inhibition at 40 µM (S. gordonii; [2]) [%] | other results
1 | COc1ccccc1-c1cn(-c2ccc(S(=O)(=O)Cc3nc(-c4ccc(F)cc4)c(-c4ccc(F)cc4)o3)cc2)nn1 [Compound 54] | -3.4 | 21.2 | -3.3 | 
2 | O=S(=O)(Cc1nc(-c2ccc(Cl)cc2)c(-c2ccc(Cl)cc2)o1)c1ccc(-n2cc(-c3ccc(F)cc3)nn2)cc1 [Compound 56] | -2.7 | 6.3 | 6.2 ± 8.8 | 
3 | COc1ccccc1-c1cn(-c2ccc(S(=O)(=O)Cc3nc(-c4ccc(Cl)cc4)c(-c4ccc(Cl)cc4)o3)cc2)nn1 [Compound 57] |  | 20 |  | melting point: 236 to 238 °C
4 | CCN(CC)c1nc(-c2cn(-c3ccc(-c4nc(-c5ccc(F)cc5)c(-c5ccc(F)cc5)o4)cc3)nn2)nc(N(CC)CC)n1 [Compound 93] | 2 ± 6.1 | 9.4 | -2 | 
5 | CCN(CC)c1nc(-c2cn(-c3ccc(-c4nc(-c5ccc(Cl)cc5)c(-c5ccc(Cl)cc5)o4)cc3)nn2)nc(N(CC)CC)n1 [Compound 95] | 0.4 ± 6.1 | 3.7 | -0.8 | ATP levels (TIGK cells; 18 h exposure): did not significantly reduce the levels of ATP
6 | Fc1ccc(-c2nc(-c3cccc(-n4cc(-c5nc(Nc6ccccc6F)nc(Nc6ccccc6F)n5)nn4)c3)oc2-c2ccc(F)cc2)cc1 [Compound 102] | -8.3 | 5 | -0.6 | 
7 | Fc1ccc(-c2nc(-c3ccc(-n4cc(-c5nc(Nc6ccccc6F)nc(Nc6ccccc6F)n5)nn4)cc3)oc2-c2ccc(F)cc2)cc1 [Compound 103] | -1.3 | 12.3 | -8.6 | 
8 | Fc1ccc(Nc2nc(Nc3ccc(F)cc3)nc(-c3cn(-c4cccc(-c5nc(-c6ccccc6)c(-c6ccccc6)o5)c4)nn3)n2)cc1 [Compound 111] |  | 4.3 |  | inhibition at 40 µM (P. gingivalis): 8.3 ± 3.6%; Concentration with cytotoxic activity relative to IC50 for inhibition of adherence (TIGK cells; 60 μM vs IC50): approximately 15 fold; Reduction of ATP levels (TIGK cells; 18 h exposure, 60 μM, p < 0.05 vs 0.1% DMSO): statistically significant; ATP levels (TIGK cells; 18 h exposure): dose-dependent reduction of ATP levels; inhibition at 40 µM (S. gordonii): 2.9 ± 3.9%
9 | Fc1ccc(Nc2nc(Nc3ccc(F)cc3)nc(-c3cn(-c4ccccc4-c4nc(-c5ccc(F)cc5)c(-c5ccc(F)cc5)o4)nn3)n2)cc1 [Compound 113] |  | 49.2 |  | 
10 | Fc1ccc(Nc2nc(Nc3ccc(F)cc3)nc(-c3cn(-c4cccc(-c5nc(-c6ccc(F)cc6)c(-c6ccc(F)cc6)o5)c4)nn3)n2)cc1 [Compound 114] |  | > 60 |  | 
11 | Fc1ccc(Nc2nc(Nc3ccc(F)cc3)nc(-c3cn(-c4ccc(-c5nc(-c6ccc(F)cc6)c(-c6ccc(F)cc6)o5)cc4)nn3)n2)cc1 [Compound 115] | -2.8 | 2.3 | -0.6 | ATP levels (TIGK cells; 18 h exposure): did not significantly reduce the levels of ATP
12 | Fc1ccc(Nc2nc(Nc3ccc(F)cc3)nc(-c3cn(-c4ccccc4-c4nc(-c5ccc(Cl)cc5)c(-c5ccc(Cl)cc5)o4)nn3)n2)cc1 [Compound 116] |  | > 40 |  | 
13 | Fc1ccc(Nc2nc(Nc3ccc(F)cc3)nc(-c3cn(-c4cccc(-c5nc(-c6ccc(Cl)cc6)c(-c6ccc(Cl)cc6)o5)c4)nn3)n2)cc1 [Compound 117] |  | 27.8 |  | 
14 | Fc1ccc(Nc2nc(Nc3ccc(F)cc3)nc(-c3cn(-c4ccc(-c5nc(-c6ccc(Cl)cc6)c(-c6ccc(Cl)cc6)o5)cc4)nn3)n2)cc1 [Compound 118] |  | 13.3 |  | 
15 | COc1ccc(-c2nc(-c3ccccc3-n3cc(-c4nc(Nc5ccc(F)cc5)nc(Nc5ccc(F)cc5)n4)nn3)oc2-c2ccc(OC)cc2)cc1 [Compound 119] |  | > 60 |  | 
16 | COc1ccc(-c2nc(-c3cccc(-n4cc(-c5nc(Nc6ccc(F)cc6)nc(Nc6ccc(F)cc6)n5)nn4)c3)oc2-c2ccc(OC)cc2)cc1 [Compound 120] |  | > 60 |  | 
17 | COc1ccc(-c2nc(-c3ccc(-n4cc(-c5nc(Nc6ccc(F)cc6)nc(Nc6ccc(F)cc6)n5)nn4)cc3)oc2-c2ccc(OC)cc2)cc1 [Compound 121] |  | > 60 |  | 
18 | Fc1ccc(Nc2nc(Nc3ccc(F)cc3)nc(-c3cn(-c4ccccc4-c4nc(-c5ccco5)c(-c5ccco5)o4)nn3)n2)cc1 [Compound 122] | 2.5 ± 5.4 | 2.4 | -0.6 | ATP levels (TIGK cells; 18 h exposure): did not significantly reduce the levels of ATP
19 | Fc1ccc(Nc2nc(Nc3ccc(F)cc3)nc(-c3cn(-c4cccc(-c5nc(-c6ccco6)c(-c6ccco6)o5)c4)nn3)n2)cc1 [Compound 123] |  | 8 |  | 
20 | Fc1ccc(Nc2nc(Nc3ccc(F)cc3)nc(-c3cn(-c4ccc(-c5nc(-c6ccco6)c(-c6ccco6)o5)cc4)nn3)n2)cc1 [Compound 124] |  | 7.8 |  | 
21 | CN(C)[C@@H]1C(O)=C(C(N)=O)C(=O)[C@@]2(O)C(O)=C3C(=O)c4c(O)cccc4[C@@](C)(O)[C@H]3C[C@@H]12 [Tet, tetracycline, reference compound] |  |  |  | inhibition at 10 µg/mL (P. gingivalis; 10 μg ml^–1 tetracycline): 95.7 ± 1.2%; inhibition at 10 µg/mL (S. gordonii; 10 μg ml^–1 tetracycline): 94.2 ± 1.7%
